Reference: article PMC11062899, “De novo development of small cyclic peptides that are orally bioavailable” (Nature Chemical Biology, 2023)

Target: human α-thrombin (Homo sapiens, UniProt P00734)
Assay: Sub-library screen for active and permeable cyclic peptides (PAMPA plus thrombin inhibition)
Type: biochemical
Details: crude, slopes normalized to DMSO; for Residual thrombin activity: Top sample: PAMPA acceptor well after 14 h, 5 μM donor; for Residual thrombin activity: Equilibrated sample: donor sample diluted to theoretical equilibrium (1 μM in assay)
In short: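 Acylated cyclic peptides at 5 μM in PBS pH 7.4 with 5% DMSO were run through PAMPA for 14 h at room temperature. Acceptor wells and a diluted donor sample at 3 μM, representing maximum permeability, were preincubated 10 min with human α-thrombin (6 nM stock). Z-Gly-Gly-Arg-AMC (150 μM stock) fluorescence was then read for 30 min at 25 °C, and inhibition was taken against a no-peptide control.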

SMILES	Residual thrombin activity: Top sample	Residual thrombin activity: Equilibrated sample
CN1C(=O)[C@@H](NC(=O)c2ccc(Cl)s2)CCCSCCS(=O)(=O)CCSCCNC(=O)C[C@H]2CCCN2C(=O)[C@@H]1Cc1ccccc1 [C3-X32-L2]	103.4	103.4
CN1C(=O)[C@@H](NC(=O)c2ccc(Cl)s2)CCSCC(=O)CSCCNC(=O)C[C@H]2CCCN2C(=O)[C@@H]1Cc1ccccc1 [C2-X32-L7]	101.9	101.7
O=C1C[C@H]2CCCN2C(=O)[C@@H](Cc2ccccc2)NC(=O)[C@@H](NC(=O)c2ccc(Cl)s2)CSCc2cccc(n2)CSCCN1 [C1-X31-L1]	89.8	93.2
O=C1C[C@H]2CCCN2C(=O)[C@H](Cc2ccc(Cl)cc2)NC(=O)[C@@H](NC(=O)c2ccc(Cl)s2)CCSC/C=C/CSCCN1 [C2-X34-L4]	98.6	98.5
O=C1C[C@H]2CCCN2C(=O)[C@H](Cc2ccc(Cl)cc2)NC(=O)[C@@H](NC(=O)c2ccc(Cl)s2)CCCSC/C=C/CSCCN1 [C3-X34-L4]	100.7	91.1
CN1C(=O)[C@@H](NC(=O)c2ccc(Cl)s2)CCCSC/C=C/CSCCNC(=O)C[C@H]2CCCN2C(=O)[C@@H]1Cc1ccccc1 [C3-X32-L4]	101.4	100.1
COc1ccc(C[C@@H]2NC(=O)[C@@H](NC(=O)c3ccc(Cl)s3)CCSCc3ccc(cc3)CSCCNC(=O)C[C@H]3CCCN3C2=O)cc1 [C2-X33-L3]	100.8	99.6
O=C1C[C@H]2CCCN2C(=O)[C@H](Cc2ccccc2)NC(=O)[C@@H](NC(=O)c2ccc(Cl)s2)CCCSCCS(=O)(=O)CCSCCN1 [C3-X5-L2]	81.8	27.6
Cc1cccc(C[C@@H]2NC(=O)[C@@H](NC(=O)c3ccc(Cl)s3)CCSCc3ccc(cc3)CSCCNC(=O)C[C@H]3CCCN3C2=O)c1 [C2-X37-L3]	100.6	94.8
O=C1C[C@H]2CCCN2C(=O)[C@@H](Cc2ccccc2)NC(=O)[C@@H](NC(=O)c2ccc(Cl)s2)CSCCS(=O)(=O)CCSCCN1 [C1-X31-L2]	103.5	90.9
COc1ccc(C[C@@H]2NC(=O)[C@@H](NC(=O)c3ccc(Cl)s3)CSCc3cccc(n3)CSCCNC(=O)C[C@H]3CCCN3C2=O)cc1 [C1-X33-L1]	92.7	96.7
O=C1C[C@H]2CCCN2C(=O)[C@H](Cc2ccc(Cl)cc2)NC(=O)[C@@H](NC(=O)c2ccc(Cl)s2)CCSCc2ccccc2CSCCN1 [C2-X34-L6]	93.6	95.7
N#Cc1ccc(C[C@@H]2NC(=O)[C@@H](NC(=O)c3ccc(Cl)s3)CCCSCc3cccc(c3)CSCCNC(=O)C[C@H]3CCCN3C2=O)cc1 [C3-X35-L5]	107.1	100.9
COc1ccc(C[C@@H]2NC(=O)[C@@H](NC(=O)c3ccc(Cl)s3)CCCSCc3cccc(n3)CSCCNC(=O)C[C@H]3CCCN3C2=O)cc1 [C3-X33-L1]	99.7	94.6
O=C1C[C@H]2CCCN2C(=O)[C@H](Cc2ccc(Cl)cc2)NC(=O)[C@@H](NC(=O)c2ccc(Cl)s2)CCCSCc2cccc(n2)CSCCN1 [C3-X34-L1]	99.1	94.7
O=C1C[C@H]2CCCN2C(=O)[C@@H](Cc2ccccc2)NC(=O)[C@@H](NC(=O)c2ccc(Cl)s2)CCSCCS(=O)(=O)CCSCCN1 [C2-X31-L2]	98.7	98.6
CN1C(=O)[C@@H](NC(=O)c2ccc(Cl)s2)CSCc2cccc(n2)CSCCNC(=O)C[C@H]2CCCN2C(=O)[C@@H]1Cc1ccccc1 [C1-X32-L1]	87.6	99.6
COc1ccc(C[C@@H]2NC(=O)[C@@H](NC(=O)c3ccc(Cl)s3)CCSCc3cccc(n3)CSCCNC(=O)C[C@H]3CCCN3C2=O)cc1 [C2-X33-L1]	95.4	94.0
CN1C(=O)[C@@H](NC(=O)c2ccc(Cl)s2)CSCC(=O)CSCCNC(=O)C[C@H]2CCCN2C(=O)[C@@H]1Cc1ccccc1 [C1-X32-L7]	95.4	96.7
O=C1C[C@H]2CCCN2C(=O)[C@@H](Cc2ccccc2)NC(=O)[C@@H](NC(=O)c2ccc(Cl)s2)CCSCc2ccccc2CSCCN1 [C2-X31-L6]	92.4	88.8
O=C1C[C@H]2CCCN2C(=O)[C@H](Cc2ccc(Cl)cc2)NC(=O)[C@@H](NC(=O)c2ccc(Cl)s2)CCCSCc2ccc(cc2)CSCCN1 [C3-X34-L3]	101.2	96.4

SMILES	Residual thrombin activity: Top sample	Residual thrombin activity: Equilibrated sample
O=C1C[C@H]2CCCN2C(=O)[C@H](Cc2ccc(C(F)(F)F)cc2)NC(=O)[C@@H](NC(=O)c2ccc(Cl)s2)CSC/C=C/CSCCN1 [C1-X36-L4]	96.8	92.7
O=C1CSCCNC(=O)C[C@H]2CCCN2C(=O)[C@H](Cc2ccccc2)NC(=O)[C@@H](NC(=O)c2ccc(Cl)s2)CSC1 [C1-X5-L7]	93.6	82.8
N#Cc1ccc(C[C@@H]2NC(=O)[C@@H](NC(=O)c3ccc(Cl)s3)CCCSCc3ccc(cc3)CSCCNC(=O)C[C@H]3CCCN3C2=O)cc1 [C3-X35-L3]	103.5	94.6
Cc1cccc(C[C@@H]2NC(=O)[C@@H](NC(=O)c3ccc(Cl)s3)CSCCS(=O)(=O)CCSCCNC(=O)C[C@H]3CCCN3C2=O)c1 [C1-X37-L2]	93.0	57.2
N#Cc1ccc(C[C@@H]2NC(=O)[C@@H](NC(=O)c3ccc(Cl)s3)CCSCCS(=O)(=O)CCSCCNC(=O)C[C@H]3CCCN3C2=O)cc1 [C2-X35-L2]	102.9	100.1
O=C1C[C@H]2CCCN2C(=O)[C@H](Cc2ccc(Cl)cc2)NC(=O)[C@@H](NC(=O)c2ccc(Cl)s2)CSCc2ccc(cc2)CSCCN1 [C1-X34-L3]	96.0	94.6
N#Cc1ccc(C[C@@H]2NC(=O)[C@@H](NC(=O)c3ccc(Cl)s3)CSC/C=C/CSCCNC(=O)C[C@H]3CCCN3C2=O)cc1 [C1-X35-L4]	93.4	96.9
COc1ccc(C[C@@H]2NC(=O)[C@@H](NC(=O)c3ccc(Cl)s3)CSCc3cccc(c3)CSCCNC(=O)C[C@H]3CCCN3C2=O)cc1 [C1-X33-L5]	99.7	99.3
CN1C(=O)[C@@H](NC(=O)c2ccc(Cl)s2)CCCSCC(=O)CSCCNC(=O)C[C@H]2CCCN2C(=O)[C@@H]1Cc1ccccc1 [C3-X32-L7]	102.9	98.1
O=C1C[C@H]2CCCN2C(=O)[C@H](Cc2ccccc2)NC(=O)[C@@H](NC(=O)c2ccc(Cl)s2)CCSCc2ccccc2CSCCN1 [C2-X5-L6]	87.4	76.1
O=C1C[C@H]2CCCN2C(=O)[C@@H](Cc2ccccc2)NC(=O)[C@@H](NC(=O)c2ccc(Cl)s2)CCCSCc2cccc(c2)CSCCN1 [C3-X31-L5]	105.2	103.4
O=C1CSCCC[C@H](NC(=O)c2ccc(Cl)s2)C(=O)N[C@H](Cc2ccccc2)C(=O)N2CCC[C@@H]2CC(=O)NCCSC1 [C3-X31-L7]	102.1	99.4
CN1C(=O)[C@@H](NC(=O)c2ccc(Cl)s2)CSCc2ccccc2CSCCNC(=O)C[C@H]2CCCN2C(=O)[C@@H]1Cc1ccccc1 [C1-X32-L6]	91.7	86.4
Cc1cccc(C[C@@H]2NC(=O)[C@@H](NC(=O)c3ccc(Cl)s3)CCCSCc3cccc(n3)CSCCNC(=O)C[C@H]3CCCN3C2=O)c1 [C3-X37-L1]	78.3	49.4
O=C1CSCCNC(=O)C[C@H]2CCCN2C(=O)[C@H](Cc2ccc(C(F)(F)F)cc2)NC(=O)[C@@H](NC(=O)c2ccc(Cl)s2)CCSC1 [C2-X36-L7]	102.7	104.5
CN1C(=O)[C@@H](NC(=O)c2ccc(Cl)s2)CCSCCS(=O)(=O)CCSCCNC(=O)C[C@H]2CCCN2C(=O)[C@@H]1Cc1ccccc1 [C2-X32-L2]	93.7	100.8
N#Cc1ccc(C[C@@H]2NC(=O)[C@@H](NC(=O)c3ccc(Cl)s3)CSCCS(=O)(=O)CCSCCNC(=O)C[C@H]3CCCN3C2=O)cc1 [C1-X35-L2]	95.6	96.6
CN1C(=O)[C@@H](NC(=O)c2ccc(Cl)s2)CCCSCc2ccccc2CSCCNC(=O)C[C@H]2CCCN2C(=O)[C@@H]1Cc1ccccc1 [C3-X32-L6]	99.5	96.0
COc1ccc(C[C@@H]2NC(=O)[C@@H](NC(=O)c3ccc(Cl)s3)CSC/C=C/CSCCNC(=O)C[C@H]3CCCN3C2=O)cc1 [C1-X33-L4]	95.0	98.0
COc1ccc(C[C@@H]2NC(=O)[C@@H](NC(=O)c3ccc(Cl)s3)CCSCCS(=O)(=O)CCSCCNC(=O)C[C@H]3CCCN3C2=O)cc1 [C2-X33-L2]	98.8	98.9
